Experimental data published in US8415469B2, “Compounds and methods for kinase modulation, and indications therefor” (Plexxikon Inc., priority 2005, dated 2013).

Assays:
Assay type in all cases: biochemical
[1] = biological target: T1, Zap70 (Homo sapiens, UniProt P43403); assay: AlphaScreen kinase assay, Zap70; details: read-out: IC50, activity toward kinase Zap70
T1 construct: P1868.pFastBac1 ZAP70 D327-G606 HIS, WT; His7 (HHHHHHH) (C); made in house
T1 sequence (P43403 with tags, fused parts or gaps): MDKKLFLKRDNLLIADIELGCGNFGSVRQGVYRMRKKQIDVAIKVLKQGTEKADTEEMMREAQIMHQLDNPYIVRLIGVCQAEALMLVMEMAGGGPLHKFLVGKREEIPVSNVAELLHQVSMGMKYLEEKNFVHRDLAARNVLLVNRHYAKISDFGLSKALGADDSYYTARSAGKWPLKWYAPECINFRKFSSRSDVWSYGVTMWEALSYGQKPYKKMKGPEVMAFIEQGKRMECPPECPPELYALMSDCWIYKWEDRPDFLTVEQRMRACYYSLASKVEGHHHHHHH
Text: AlphaScreen assay was used to screen additional kinases. The assay is similarly dependent on the phosphorylation of a peptide substrate. In this assay, an antibody that recognizes phosphorylated substrate is bound to an acceptor bead. The peptide substrate is attached to biotin, which binds to a donor head that contains streptavidin. Thus phosphorylated substrate is bound by antibody and streptavidin, bringing the donor and acceptor heads into close proximity when kinase is not inhibited. The donor produces singlet oxygen which results in emission from the acceptor when they are in close proximity. Conversely, when kinase is inhibited, the donor and acceptor beads are not associated and the emission from the acceptor is reduced.
AlphaScreen assays were done using compounds dissolved in DMSO to a concentration of 20 mM. The compounds were diluted accordingly to the desired final concentrations in each sample well, using 1:3 serial dilution for a total of 8 concentration points.

[2] = biological target: T2, Ret (Homo sapiens, UniProt P07949); assay: AlphaScreen kinase assay, Ret; details: read-out: IC50, activity toward kinase Ret
T2 construct: P1378.pET-SF BI-PTP RET H661-R1012 HIS; made in house
T2 sequence (P07949 with tags, fused parts or gaps): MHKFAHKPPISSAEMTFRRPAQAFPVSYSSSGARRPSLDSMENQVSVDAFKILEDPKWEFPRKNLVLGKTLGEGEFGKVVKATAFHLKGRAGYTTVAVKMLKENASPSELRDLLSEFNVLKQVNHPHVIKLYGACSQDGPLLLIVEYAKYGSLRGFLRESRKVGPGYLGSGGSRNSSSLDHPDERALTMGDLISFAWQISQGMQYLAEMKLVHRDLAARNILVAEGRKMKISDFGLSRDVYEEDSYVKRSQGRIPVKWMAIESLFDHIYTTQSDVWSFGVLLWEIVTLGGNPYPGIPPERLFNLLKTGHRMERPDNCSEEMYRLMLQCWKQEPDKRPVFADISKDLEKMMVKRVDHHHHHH

[3] = biological target: T3, FGFR1 (Homo sapiens, UniProt P11362, C488A/C584S); assay: AlphaScreen kinase assay, FGFR1; details: read-out: IC50, activity toward kinase FGFR
T3 construct: P1351.pET N6 BI-PTP FGFR A458-E765-X C488A, C584S; made in house; host or cells: E. coli (PTP1B co-expressed)
T3 sequence (P11362 458-765 C488A/C584S): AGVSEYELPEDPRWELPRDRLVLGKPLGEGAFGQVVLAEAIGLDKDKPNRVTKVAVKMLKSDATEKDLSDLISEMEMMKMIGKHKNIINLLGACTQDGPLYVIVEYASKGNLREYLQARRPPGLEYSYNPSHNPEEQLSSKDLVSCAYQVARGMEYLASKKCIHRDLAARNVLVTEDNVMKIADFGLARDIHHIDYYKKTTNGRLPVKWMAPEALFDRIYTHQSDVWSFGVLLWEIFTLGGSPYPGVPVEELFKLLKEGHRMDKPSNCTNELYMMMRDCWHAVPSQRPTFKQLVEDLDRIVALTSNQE

[4] = biological target: T4, Kdr (Homo sapiens, UniProt P35968); assay: Z'-Lyte FRET kinase assay (Invitrogen), Kdr; details: read-out: IC50, activity toward kinase Kdr
T4 construct: purchased Invitrogen (assay run by Invitrogen)
T4 sequence (P35968 20-1356): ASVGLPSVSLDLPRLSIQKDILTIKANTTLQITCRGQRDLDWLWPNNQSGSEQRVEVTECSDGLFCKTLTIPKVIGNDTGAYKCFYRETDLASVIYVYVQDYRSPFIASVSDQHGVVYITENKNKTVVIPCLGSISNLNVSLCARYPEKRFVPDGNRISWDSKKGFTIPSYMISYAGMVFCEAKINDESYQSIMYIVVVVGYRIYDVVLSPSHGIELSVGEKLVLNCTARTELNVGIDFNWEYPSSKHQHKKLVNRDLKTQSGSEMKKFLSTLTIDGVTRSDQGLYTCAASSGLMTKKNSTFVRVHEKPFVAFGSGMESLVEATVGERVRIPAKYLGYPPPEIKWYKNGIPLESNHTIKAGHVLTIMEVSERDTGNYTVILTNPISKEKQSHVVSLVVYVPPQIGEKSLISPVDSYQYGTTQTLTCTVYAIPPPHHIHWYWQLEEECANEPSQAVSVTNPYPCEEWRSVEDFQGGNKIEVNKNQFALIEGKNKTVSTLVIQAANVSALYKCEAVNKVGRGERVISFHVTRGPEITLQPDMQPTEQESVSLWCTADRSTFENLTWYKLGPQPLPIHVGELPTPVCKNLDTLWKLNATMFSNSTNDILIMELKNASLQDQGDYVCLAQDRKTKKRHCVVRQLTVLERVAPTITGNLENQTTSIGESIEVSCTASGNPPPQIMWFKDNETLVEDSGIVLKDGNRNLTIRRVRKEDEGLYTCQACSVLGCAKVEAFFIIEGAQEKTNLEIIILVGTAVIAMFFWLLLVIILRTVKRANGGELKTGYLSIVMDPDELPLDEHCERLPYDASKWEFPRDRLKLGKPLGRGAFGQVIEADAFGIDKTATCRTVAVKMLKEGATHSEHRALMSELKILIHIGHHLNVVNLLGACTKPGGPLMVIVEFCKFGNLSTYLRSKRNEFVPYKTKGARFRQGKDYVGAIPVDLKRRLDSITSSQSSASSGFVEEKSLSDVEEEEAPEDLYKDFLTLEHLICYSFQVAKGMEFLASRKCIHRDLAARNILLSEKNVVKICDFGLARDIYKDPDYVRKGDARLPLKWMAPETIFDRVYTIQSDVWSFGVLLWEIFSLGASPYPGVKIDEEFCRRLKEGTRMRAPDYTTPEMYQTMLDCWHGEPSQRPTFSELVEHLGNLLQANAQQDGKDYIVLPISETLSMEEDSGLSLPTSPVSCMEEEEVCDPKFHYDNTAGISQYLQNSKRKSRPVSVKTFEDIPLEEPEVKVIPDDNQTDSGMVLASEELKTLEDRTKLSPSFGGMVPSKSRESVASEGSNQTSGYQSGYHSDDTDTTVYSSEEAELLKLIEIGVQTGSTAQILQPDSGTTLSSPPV

[5] = biological target: T5, Jnk3 (Homo sapiens, UniProt P53779); assay: AlphaScreen kinase assay, Jnk3; details: read-out: IC50, activity toward kinase Jnk3
T5 construct: purchased Upstate Biotechnology
T5 sequence (P53779 whole entry): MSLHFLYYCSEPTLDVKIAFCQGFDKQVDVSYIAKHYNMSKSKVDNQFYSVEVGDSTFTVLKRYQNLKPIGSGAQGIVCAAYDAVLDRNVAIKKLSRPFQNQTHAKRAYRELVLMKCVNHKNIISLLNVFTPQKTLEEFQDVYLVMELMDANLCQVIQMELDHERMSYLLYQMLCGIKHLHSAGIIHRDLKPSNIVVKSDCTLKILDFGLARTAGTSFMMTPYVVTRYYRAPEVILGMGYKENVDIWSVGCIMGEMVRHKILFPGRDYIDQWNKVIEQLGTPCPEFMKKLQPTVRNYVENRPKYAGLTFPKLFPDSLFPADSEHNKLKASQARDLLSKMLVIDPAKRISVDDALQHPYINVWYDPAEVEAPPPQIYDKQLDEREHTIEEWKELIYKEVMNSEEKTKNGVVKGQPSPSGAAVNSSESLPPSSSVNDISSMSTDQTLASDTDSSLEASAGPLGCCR

[6] = biological target: T6, B-Raf V600E (Homo sapiens, UniProt P15056, V600E); assay: AlphaScreen kinase assay, B-Raf V600E; details: read-out: IC50, activity toward kinase B-Raf V600E
T6 construct: P4254. pFastBacBD-CDC37 BRAF D437-K722-X, V600E; His6 with pFastBac HT leader (TEV site) (N); made in house; host or cells: Sf9 (baculovirus; chaperone CDC37 co-expressed)
T6 sequence (P15056 with tags, fused parts or gaps V600E): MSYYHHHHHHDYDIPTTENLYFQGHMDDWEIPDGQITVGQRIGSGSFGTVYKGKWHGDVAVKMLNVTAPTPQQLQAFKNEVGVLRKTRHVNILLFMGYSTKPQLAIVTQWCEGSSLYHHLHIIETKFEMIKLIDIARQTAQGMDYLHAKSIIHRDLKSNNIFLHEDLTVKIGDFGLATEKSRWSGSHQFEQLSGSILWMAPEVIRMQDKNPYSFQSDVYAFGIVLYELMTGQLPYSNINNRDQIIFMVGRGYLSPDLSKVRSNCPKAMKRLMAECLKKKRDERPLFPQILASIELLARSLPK

[7] = biological target: T7, Kit (Homo sapiens, UniProt P10721); assay: AlphaScreen kinase assay, Kit; details: read-out: IC50, activity toward kinase Kit
T7 construct: P1332.N6 BI PTP KIT M552-K948-X COD; His6 (N); made in house; host or cells: E. coli (PTP1B co-expressed)
T7 sequence (P10721 with tags, fused parts or gaps): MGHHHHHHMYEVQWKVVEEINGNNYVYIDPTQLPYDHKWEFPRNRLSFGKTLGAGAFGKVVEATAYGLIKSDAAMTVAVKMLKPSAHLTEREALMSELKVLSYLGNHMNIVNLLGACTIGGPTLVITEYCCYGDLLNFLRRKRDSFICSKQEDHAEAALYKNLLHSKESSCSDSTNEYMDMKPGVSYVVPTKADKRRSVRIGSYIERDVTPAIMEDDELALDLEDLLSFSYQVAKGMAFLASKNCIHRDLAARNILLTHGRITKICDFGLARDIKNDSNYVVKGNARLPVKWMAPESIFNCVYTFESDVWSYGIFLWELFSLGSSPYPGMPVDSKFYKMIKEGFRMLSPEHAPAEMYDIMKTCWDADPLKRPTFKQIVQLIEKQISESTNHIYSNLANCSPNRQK

[8] = biological target: T8, Stk6 (Homo sapiens, UniProt O14965); assay: Z'-Lyte FRET kinase assay (Invitrogen), Stk6; details: read-out: IC50, activity toward kinase Stk6
T8 construct: purchased Invitrogen (Carlsbad, Calif.), screening service
T8 sequence (O14965 1-403): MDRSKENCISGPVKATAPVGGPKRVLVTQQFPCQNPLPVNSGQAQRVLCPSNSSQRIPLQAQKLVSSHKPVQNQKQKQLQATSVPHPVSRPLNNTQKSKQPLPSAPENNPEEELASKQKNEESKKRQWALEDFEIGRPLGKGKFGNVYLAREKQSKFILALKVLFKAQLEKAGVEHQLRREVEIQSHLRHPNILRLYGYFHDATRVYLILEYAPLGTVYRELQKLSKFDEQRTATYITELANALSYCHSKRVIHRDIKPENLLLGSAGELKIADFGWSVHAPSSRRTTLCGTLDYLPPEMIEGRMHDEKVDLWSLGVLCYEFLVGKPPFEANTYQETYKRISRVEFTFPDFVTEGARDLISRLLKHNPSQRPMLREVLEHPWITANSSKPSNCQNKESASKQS

SMILES	IC50 [1] [µM]	further results
Clc1ccc(/C=C\c2c[nH]c3ncccc23)cn1 [Compound P-0360]	≤ 10	–
COCc1c[nH]c2ncccc12 [Compound P-1197]	≤ 10	–
COc1ccc(Cc2c[nH]c3ncccc23)cc1F [Compound P-0359]	≤ 10	–
c1cncc(-c2ccnc3[nH]ccc23)c1 [Compound P-0387]	≤ 10	–
O=S(=O)(c1ccsc1)N1CCN(Cc2c[nH]c3ncccc23)CC1 [Compound P-1051]	≤ 10	–
COc1cccc(-c2ccc(S(=O)(=O)NCc3c[nH]c4ncccc34)s2)c1 [Compound P-0676]	≤ 10	–
NC(=O)c1ccc(-c2cnc3[nH]cc(C(=O)c4ccc(Cl)cc4)c3c2)cc1 [Compound P-1073]	≤ 10	IC50 [2]: ≤ 10 µM
COc1ccc(S(=O)(=O)NCc2ccnc3[nH]ccc23)cc1 [Compound P-0724]	≤ 10	–
CC(C)c1ccc(Cc2c[nH]c3ncccc23)cn1 [Compound P-0379]	≤ 10	IC50 [3]: ≤ 10 µM; IC50 [4]: ≤ 10 µM
COc1cccc(C(=O)c2c[nH]c3ncc(-c4ccc(C(N)=O)cc4)cc23)c1 [Compound P-1005]	≤ 10	IC50 [2]: ≤ 10 µM; IC50 [5]: ≤ 10 µM
CN(Cc1ccncc1)Cc1[nH]c2ncccc2c1-c1ccc(C(N)=O)cc1 [Compound P-0727]	≤ 10	–
CCCCc1ccc(S(=O)(=O)NCc2c[nH]c3ncccc23)cc1 [Compound P-1119]	≤ 10	IC50 [2]: ≤ 10 µM
c1cnc2[nH]c(CNCCc3ccncc3)cc2c1 [Compound P-0880]	≤ 10	–
COc1ccc(OC)c(S(=O)(=O)NCc2c[nH]c3ncccc23)c1 [Compound P-0808]	≤ 10	–
Cc1cccc(-c2ccnc3[nH]cc(CNS(=O)(=O)c4ccc([N+](=O)[O-])cc4)c23)c1 [Compound P-0888]	≤ 10	–
CS(=O)(=O)c1ccc(CNCc2[nH]c3ncccc3c2-c2cccc(CO)c2)cc1 [Compound P-0523]	≤ 10	–
COC(c1ccc(Br)cc1)c1c[nH]c2ncc(-c3cccc(S(C)(=O)=O)c3)cc12 (stereo not shown) [Compound P-0434]	≤ 10	IC50 [2]: ≤ 10 µM; IC50 [6]: ≤ 10 µM
Cc1cc2cccnc2[nH]1 [Compound P-0394]	≤ 10	–
O=C(c1cccc(O)c1)c1ccc(-c2cnc3[nH]ccc3c2)s1 [Compound P-0755]	≤ 10	IC50 [7]: ≤ 10 µM; IC50 [5]: ≤ 10 µM
O=C(c1cccc(F)c1)c1c[nH]c2ncc(-c3ccsc3)cc12 [Compound P-0378]	≤ 10	IC50 [2]: ≤ 10 µM; IC50 [7]: ≤ 10 µM; IC50 [5]: ≤ 10 µM
Clc1ccnc2[nH]ccc12 [Compound P-0342]	≤ 10	–
COc1cccc(C(=O)c2c[nH]c3ncc(-c4cccnc4)cc23)c1 [Compound P-0218]	≤ 10	IC50 [5]: ≤ 10 µM
Fc1ccc(Cc2nc(-c3c[nH]c4ncccc34)no2)cc1 [Compound P-0602]	≤ 10	–
CS(=O)(=O)Nc1cccc(-c2cnc3[nH]cc(C(=O)c4ccc5nsnc5c4)c3c2)c1 [Compound P-1089]	≤ 10	IC50 [2]: ≤ 10 µM
O=C(c1ccccc1)c1c[nH]c2c1cc(Br)c[n+]2[O-] [Compound P-0275]	≤ 10	–
CCCOc1ccc(-c2c[nH]c3ncccc23)cc1 [Compound P-0878]	≤ 10	–
O=S(=O)(NCc1c[nH]c2ncccc12)c1ccc(O)cc1 [Compound P-0859]	≤ 10	–

SMILES	IC50 [1] [µM]	further results
Cc1[nH]c2ncccc2c1-c1ccc(F)c(F)c1 [Compound P-0929]	≤ 10	–
COc1cc(CCNCc2cc3cccnc3[nH]2)ccc1O [Compound P-0836]	≤ 10	–
CC(C)(C)NCc1c[nH]c2ncccc12 [Compound P-0476]	≤ 10	–
O=C(O)/C=C/c1cccc(-c2cnc3[nH]cc(C(=O)c4ccc5nsnc5c4)c3c2)c1 [Compound P-1019]	≤ 10	IC50 [2]: ≤ 10 µM
O=Cc1c[nH]c2nccc(Cl)c12 [Compound P-0649]	≤ 10	–
O=C1CCCN1CCCNCc1c[nH]c2ncccc12 [Compound P-1184]	≤ 10	–
Cc1[nH]c2ncccc2c1-c1cccs1 [Compound P-0249]	≤ 10	IC50 [8]: ≤ 10 µM
FC(F)(F)c1ccc(-c2ccnc3[nH]ccc23)cc1 [Compound P-0694]	≤ 10	–
NC(=O)c1ccc(-c2cnc3[nH]cc(C(=O)c4ccc5nsnc5c4)c3c2)cc1 [Compound P-1081]	≤ 10	IC50 [2]: ≤ 10 µM
CCOC(=O)C(Cc1c[nH]c2ncccc12)C(=O)OCC [Compound P-0642]	≤ 10	–
O=C(c1cccc(Cl)c1Cl)c1c[nH]c2ncc(-c3ccsc3)cc12 [Compound P-0698]	≤ 10	IC50 [2]: ≤ 10 µM; IC50 [3]: ≤ 10 µM; IC50 [5]: ≤ 10 µM; IC50 [6]: ≤ 10 µM
N#Cc1ccc(/C=C\c2c[nH]c3ncccc23)cc1 [Compound P-0500]	≤ 10	–
Cc1[nH]c2ncccc2c1-c1ccc(C(C)(C)C)cc1 [Compound P-0953]	≤ 10	–
O=S(=O)(NCc1c[nH]c2ncccc12)c1cccc(-c2cccc(CO)c2)c1 [Compound P-0484]	≤ 10	–
Brc1c(CNCc2cccnc2)[nH]c2ncccc12 [Compound P-0875]	≤ 10	–
O=S(=O)(NCc1c[nH]c2ncccc12)c1ccc(Cl)s1 [Compound P-0930]	≤ 10	–
Fc1ccccc1-c1c[nH]c2ncccc12 [Compound P-0195]	≤ 10	IC50 [7]: ≤ 10 µM; IC50 [4]: ≤ 10 µM
COC(=O)c1ccc(CCc2c[nH]c3ncccc23)cc1 [Compound P-0586]	≤ 10	–
COCCN1CCN(Cc2[nH]c3ncccc3c2-c2ccc(C(N)=O)cc2)CC1 [Compound P-0856]	≤ 10	–
O=C(NCc1ccccc1Cl)NCc1c[nH]c2ncccc12 [Compound P-0982]	≤ 10	–
Cc1cc(C)cc(Cc2c[nH]c3ncccc23)c1 [Compound P-0507]	≤ 10	IC50 [3]: ≤ 10 µM
Fc1cc(F)cc(-c2ccnc3[nH]ccc23)c1 [Compound P-0296]	≤ 10	IC50 [4]: ≤ 10 µM
Cc1cc(C(=O)c2c[nH]c3nccc(-c4cccc(/C=C/C(=O)O)c4)c23)no1 [Compound P-1000]	≤ 10	IC50 [2]: ≤ 10 µM; IC50 [6]: ≤ 10 µM
O=C(CCc1c[nH]c2ncccc12)NCc1cccnc1 [Compound P-0456]	≤ 10	–
O=C(c1cccc(F)c1)c1c[nH]c2ncc(Br)cc12 [Compound P-0865]	≤ 10	IC50 [2]: ≤ 10 µM; IC50 [3]: ≤ 10 µM; IC50 [7]: ≤ 10 µM
O=C(OCc1ccccc1)c1cnc2[nH]ccc2c1 [Compound P-0607]	≤ 10	–
O=Cc1ccc(-c2ccnc3[nH]ccc23)cc1 [Compound P-0996]	≤ 10	–
